Data published in ChEMBL document CHEMBL3217722, “Synthesis of hybrid 4-anilinoquinoline triazines as potent antimalarial agents, their in silico modeling and bioevaluation as Plasmodium falciparumtransketolase and -hematin inhibitors” (Medchemcomm, 2012).
In brackets after ≈: the same amount, converted by molar mass. Activity calls are given as the source filed them. No cut-off for these calls is given here.

What was measured:
[1] = Selectivity index, ratio of IC50 for African green monkey Vero cells to IC50 for Plasmodium falciparum; type: toxicity, cell-based; details: read-out: Ratio IC50
[2] = test system: Plasmodium falciparum; assay: Antiplasmodial activity against chloroquine-sensitive Plasmodium falciparum 3D7 after 72 hrs by SYBR Green-1 dye-based fluorescence assay; type: functional, organism-based; details: 3D7, 72 h
[3] = test system: Plasmodium yoelii; assay: Inhibition of beta-hematin formation in Plasmodium yoelii infected Swiss mouse plasma after 16 hrs; type: functional
[4] = test system: Plasmodium falciparum; assay: Antiplasmodial activity against chloroquine-resistant Plasmodium falciparum K1 after 72 hrs by SYBR Green-1 dye-based fluorescence assay; type: functional, organism-based; details: K1, 72 h
[5] = Inhibition of Plasmodium falciparum transketolase using fructose-6-phosphate as substrate by spectrophotometric analysis
[6] = test system: Plasmodium yoelii; assay: Antimalarial activity against chloroquine-resistant Plasmodium yoelii N-67 infected in Swiss mouse assessed as mouse survival at 100 mg/kg, po qd for 4 days measured on day 28; type: functional, organism-based; set-up: dose 100 mg/kg
[7] = test system: Plasmodium yoelii; assay: Antimalarial activity against chloroquine-resistant Plasmodium yoelii N-67 infected in Swiss mouse assessed as inhibition of parasitemia at 100 mg/kg, po qd for 4 days relative to control; type: functional; details: N-67, 96 h
[8] = test system: Plasmodium yoelii; assay: Antimalarial activity against chloroquine-resistant Plasmodium yoelii N-67 infected in Swiss mouse assessed as mouse survival at 50 mg/kg, po qd for 4 days measured on day 28; type: functional, organism-based; set-up: dose 50 mg/kg
[9] = test system: Plasmodium yoelii; assay: Antimalarial activity against chloroquine-resistant Plasmodium yoelii N-67 infected in Swiss mouse assessed as inhibition of parasitemia at 50 mg/kg, po qd for 4 days relative to control; type: functional; details: N-67, 96 h

| SMILES | selectivity ratio [1] | IC50 [2] | IC50 [3] | IC50 [4] | IC50 [5] | Activity [6] | inhibition in vivo at 100 mg/kg [7] | Activity [8] | inhibition in vivo at 50 mg/kg [9] |
| --- | --- | --- | --- | --- | --- | --- | --- | --- | --- |
| Clc1cccc(Nc2nc(NCCCN3CCOCC3)nc(Nc3ccc(Nc4ccnc5cc(Cl)ccc45)cc3)n2)c1 | 180 | 0.00382 mg/L (≈ 0.0062 µM) | 4.56 mg/L (≈ 7.4 µM) | 0.00882 mg/L (≈ 0.0143 µM) | 76.4 µM |  |  |  |  |
| COc1ccc(Nc2nc(NCCCN3CCOCC3)nc(Nc3ccc(Nc4ccnc5cc(Cl)ccc45)cc3)n2)cc1OC | 413 | 0.00458 mg/L (≈ 0.00713 µM) | 2.3 mg/L (≈ 3.58 µM) | 0.0026 mg/L (≈ 0.00405 µM) |  |  |  |  |  |
| CCN1CCN(c2nc(Nc3ccc(Nc4ccnc5cc(Cl)ccc45)cc3)nc(N3CCc4ccccc4C3)n2)CC1 | 75.9 | 0.0121 mg/L (≈ 0.0205 µM) | 2.25 mg/L (≈ 3.8 µM) | 0.116 mg/L (≈ 0.196 µM) |  |  |  |  |  |
| CN1CCN(c2nc(Nc3ccc(F)cc3)nc(Nc3ccc(Nc4ccnc5cc(Cl)ccc45)cc3)n2)CC1 | 122 | 0.00897 mg/L (≈ 0.0161 µM) | 2.08 mg/L (≈ 3.74 µM) | 0.00206 mg/L (≈ 0.0037 µM) |  | inactive | 100% |  |  |
| Fc1cccc(Nc2nc(NCCCN3CCOCC3)nc(Nc3ccc(Nc4ccnc5cc(Cl)ccc45)cc3)n2)c1 | 551 | 0.00136 mg/L (≈ 0.00227 µM) | 2.06 mg/L (≈ 3.43 µM) | 0.00571 mg/L (≈ 0.00952 µM) | 76.7 µM | inactive | 100% |  |  |
| Fc1ccc(Nc2nc(NCCCN3CCOCC3)nc(Nc3ccc(Nc4ccnc5cc(Cl)ccc45)cc3)n2)cc1 | 682 | 0.0158 mg/L (≈ 0.0264 µM) | 2.17 mg/L (≈ 3.62 µM) |  |  |  |  |  |  |
| Clc1ccc(Nc2nc(NCCCN3CCOCC3)nc(Nc3ccc(Nc4ccnc5cc(Cl)ccc45)cc3)n2)cc1 | 482 | 0.00463 mg/L (≈ 0.00751 µM) | 2.25 mg/L (≈ 3.65 µM) | 0.00858 mg/L (≈ 0.0139 µM) |  |  |  |  |  |
| COc1cccc(Nc2nc(NCCCN3CCOCC3)nc(Nc3ccc(Nc4ccnc5cc(Cl)ccc45)cc3)n2)c1 | 2500 | 0.00298 mg/L (≈ 0.00487 µM) | 3.49 mg/L (≈ 5.7 µM) |  |  |  |  |  |  |
| CCN1CCN(c2nc(Nc3ccc(Nc4ccnc5cc(Cl)ccc45)cc3)nc(N3CCCc4ccccc43)n2)CC1 | 36 | 0.0208 mg/L (≈ 0.0352 µM) | 6.55 mg/L (≈ 11.1 µM) | 0.0116 mg/L (≈ 0.0197 µM) |  | inactive | 99% | inactive | 77.8% |
| CCN1CCN(c2nc(Nc3ccc(Cl)cc3)nc(Nc3ccc(Nc4ccnc5cc(Cl)ccc45)cc3)n2)CC1 | 67.6 | 0.00414 mg/L (≈ 0.00706 µM) | 2.05 mg/L (≈ 3.5 µM) | 0.00981 mg/L (≈ 0.0167 µM) |  |  |  |  |  |
| CCN1CCN(c2nc(Nc3ccc(Nc4ccnc5cc(Cl)ccc45)cc3)nc(Nc3cccc(F)c3)n2)CC1 | 149 | 0.00247 mg/L (≈ 0.00433 µM) | 2.06 mg/L (≈ 3.61 µM) |  | 75 µM |  |  |  |  |
| Fc1ccc(Nc2nc(NCCN3CCOCC3)nc(Nc3ccc(Nc4ccnc5cc(Cl)ccc45)cc3)n2)cc1 | 1330 | 0.00981 mg/L (≈ 0.0167 µM) | 2.38 mg/L (≈ 4.06 µM) | 0.0954 mg/L (≈ 0.163 µM) |  | inactive | 100% |  |  |
| CCN1CCN(c2nc(Nc3ccc(Nc4ccnc5cc(Cl)ccc45)cc3)nc(Nc3cccc(Cl)c3)n2)CC1 | 318 | 0.00211 mg/L (≈ 0.0036 µM) | 2.06 mg/L (≈ 3.51 µM) | 0.00496 mg/L (≈ 0.00846 µM) | 74.5 µM |  |  |  |  |
| Fc1ccc(Nc2nc(Nc3ccc(Nc4ccnc5cc(Cl)ccc45)cc3)nc(N3CCCCC3)n2)cc1 | 520 | 0.0417 mg/L (≈ 0.0772 µM) | 2.43 mg/L (≈ 4.49 µM) | > 0.5 mg/L |  |  |  |  |  |
| CCN1CCN(c2nc(Nc3ccc(Nc4ccnc5cc(Cl)ccc45)cc3)nc(N3CCOCC3)n2)CC1 | 431 | 0.00216 mg/L (≈ 0.00396 µM) | 4.17 mg/L (≈ 7.64 µM) | 0.0147 mg/L (≈ 0.0269 µM) |  | inactive | 100% | inactive | 93.5% |
| CCN1CCN(c2nc(Nc3ccc(Nc4ccnc5cc(Cl)ccc45)cc3)nc(Nc3ccc(OC)cc3)n2)CC1 | 75.1 | 0.00426 mg/L (≈ 0.00732 µM) | 2.08 mg/L (≈ 3.57 µM) | 0.00308 mg/L (≈ 0.00529 µM) |  |  |  |  |  |
| Clc1ccc2c(Nc3ccc(Nc4nc(NCCCN5CCOCC5)nc(N5CCc6ccccc6C5)n4)cc3)ccnc2c1 | 436 | 0.0203 mg/L (≈ 0.0327 µM) | 2.09 mg/L (≈ 3.36 µM) | 0.0555 mg/L (≈ 0.0892 µM) |  |  |  |  |  |
| Clc1ccc2c(Nc3ccc(Nc4nc(NCCN5CCOCC5)nc(N5CCc6ccccc6C5)n4)cc3)ccnc2c1 | 1160 | 0.0452 mg/L (≈ 0.0743 µM) | 2.08 mg/L (≈ 3.42 µM) |  |  |  |  |  |  |
| CN1CCN(c2nc(Nc3ccc(Nc4ccnc5cc(Cl)ccc45)cc3)nc(Nc3cccc(Cl)c3)n2)CC1 | 361 | 0.00241 mg/L (≈ 0.00421 µM) | 2.42 mg/L (≈ 4.23 µM) | 0.0169 mg/L (≈ 0.0295 µM) | 80.2 µM |  |  |  |  |
